Consider two compounds from patent US20240124470A1, “FIVE-MEMBERED RING DERIVATIVE AND MEDICAL USE THEREOF” (SICHUAN HAISCO PHARMACEUTICAL CO., LTD., priority 2020, published 2024).

The half-life is the time needed for the level to fall by half in the phase considered. The IC50 is the concentration needed to halve the response being measured.

A short description of data set [1]: Stability test in canine liver microsomes. In kind it is in vitro ADME. Particulars: dog. The procedure:
6. Stability Test in Canine Liver Microsomes At 37° C., 1 μM of the test compound was incubated with canine liver microsomes (0.5 mg/mL) supplemented with NADPH regeneration system for 5, 15, 30, 45 and 60 minutes, and then LC-MS/MS method was used to detect the concentration of the test compound in the generated sample. The half-life (T1/2) and inherent clearance rate (CLint(mic)) of the compound in canine liver microsome solution were obtained by calculating at the corresponding time points and the remaining percentage of the compound.
(Microsomes from liver hold many membrane-bound enzymes, among them those of drug oxidation.)

The target in data set [2] is T1, hERG potassium channel (Homo sapiens, UniProt Q12809).
T1 construct: expressed in transfected cells
T1 sequence (Q12809 whole entry): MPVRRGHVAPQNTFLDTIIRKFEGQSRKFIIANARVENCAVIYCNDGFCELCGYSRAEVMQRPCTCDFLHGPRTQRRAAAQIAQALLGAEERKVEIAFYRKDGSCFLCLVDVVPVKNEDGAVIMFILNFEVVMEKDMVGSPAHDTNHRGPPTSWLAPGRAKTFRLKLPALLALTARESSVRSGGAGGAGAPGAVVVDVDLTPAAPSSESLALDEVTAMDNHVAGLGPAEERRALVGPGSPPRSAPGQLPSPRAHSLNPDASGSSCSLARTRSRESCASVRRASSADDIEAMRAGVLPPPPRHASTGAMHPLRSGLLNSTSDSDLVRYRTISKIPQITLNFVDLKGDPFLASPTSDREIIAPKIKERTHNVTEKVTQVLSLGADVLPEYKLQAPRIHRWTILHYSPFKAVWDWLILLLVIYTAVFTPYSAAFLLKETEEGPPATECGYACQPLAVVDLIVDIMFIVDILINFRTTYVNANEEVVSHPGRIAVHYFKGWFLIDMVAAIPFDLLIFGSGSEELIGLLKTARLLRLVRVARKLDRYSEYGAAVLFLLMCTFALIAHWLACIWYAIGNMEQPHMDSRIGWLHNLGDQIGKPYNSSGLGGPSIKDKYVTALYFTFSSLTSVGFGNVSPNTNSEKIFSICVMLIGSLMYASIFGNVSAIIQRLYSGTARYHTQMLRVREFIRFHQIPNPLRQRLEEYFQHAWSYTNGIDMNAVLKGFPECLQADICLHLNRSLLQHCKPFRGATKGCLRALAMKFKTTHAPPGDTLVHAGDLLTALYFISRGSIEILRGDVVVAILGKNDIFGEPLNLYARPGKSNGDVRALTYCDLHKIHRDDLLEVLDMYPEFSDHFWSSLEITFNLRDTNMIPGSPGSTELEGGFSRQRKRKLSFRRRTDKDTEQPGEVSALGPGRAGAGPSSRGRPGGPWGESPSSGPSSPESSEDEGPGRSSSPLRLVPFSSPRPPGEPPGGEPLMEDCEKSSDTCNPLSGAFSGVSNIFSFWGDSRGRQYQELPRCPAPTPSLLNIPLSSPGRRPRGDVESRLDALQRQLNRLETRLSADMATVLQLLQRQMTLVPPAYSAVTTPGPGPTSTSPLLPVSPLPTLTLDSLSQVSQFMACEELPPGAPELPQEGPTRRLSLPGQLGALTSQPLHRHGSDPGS
Nature of the data set: Effects on hERG potassium channels, manual whole cell patch-clamp in CHO cells. In kind it is cell-based. Particulars: hERG potassium current, room temperature. From the text:
2. Effects of the Compounds on hERG Potassium Channels
Experimental platform: electrophysiological manual patch-clamp system
Cell line: Chinese hamster ovary (CHO) cells stably expressing hERG potassium ion channel
Experimental method: For CHO (Chinese Hamster Ovary) cells stably expressing hERG potassium channel, whole cell patch-clamp technique was used to recorded hERG potassium channel current at room temperature in this experiment. The glass microelectrode is made of a glass electrode blank (BF150-86-10, Sutter) by a puller. The tip resistance after filling the liquid in the electrode is about 2-5 MΩ. The glass microelectrode can be connected to the patch-clamp amplifier by inserting the glass microelectrode into an amplifier probe. The clamping voltage and data recording are controlled and recorded by the pClamp 10 software through a computer. The sampling frequency is 10 kHz, and the filtering frequency is 2 kHz. After the whole cell records were obtained, the cells were clamped at −80 mV, and the step voltage that induced the hERG potassium current (IhERG) was depolarized from −80 mV to +20 mV for 2 s, then repolarized to −50 mV, and returned to −80 mV after 1 s. This voltage stimulation was given every 10 s, and the administration process was started after the hERG potassium current was confirmed to be stable (at least 1 minute). The compound was administered for at least 1 minute at each test concentration, and at least 2 cells (n≥2) were tested at each concentration.
Data analysis processing was carried out by using pClamp 10, GraphPad Prism 5 and Excel software. The inhibition degree of hERG potassium current (peak value of hERG tail current induced at −50 mV) at different compound concentrations was calculated by the following formula: Inhibition %=[1−(I/Io)]×100%.
Among the formula, Inhibition % represents the percentage of inhibition of hERG potassium current by the compound, and I and Io represent the amplitude of hERG potassium current after and before dosing, respectively.
Compound IC50 was calculated using GraphPad Prism 5 software by fitting according to the following equation:
Y=Bottom+(Top−Bottom)/(1+10^((LogIC50−X)×HillSlope))
Among the equation, X represents the Log value of the tested concentration of the test sample, Y represents the inhibition percentage at the corresponding concentration, and Bottom and Top represent the minimum and maximum inhibition percentage, respectively.

Data set [3] is described as follows: Stability test in monkey liver microsomes. Type of data set: in vitro ADME. Here is the method:
4. Stability Test in Monkey Liver Microsomes At 37° C., 1 μM of the test compound was incubated with monkey liver microsomes (0.5 mg/mL) supplemented with NADPH regeneration system for 5, 15, 30, 45 and 60 minutes, and then LC-MS/MS method was used to detect the concentration of the test compound in the generated sample. The half-life (T1/2) and inherent clearance rate (CLint(mic)) of the compound in monkey liver microsome solution were obtained by calculating at the corresponding time points and the remaining percentage of the compound.

Data set [4] can be described thus: Stability test in mouse liver microsomes. In kind it is in vitro ADME. To be noted: mouse liver microsomes 0.5 mg/mL, 1 μM compound, NADPH, 37° C. The procedure: 3. Stability Test in Mouse Liver Microsomes At 37° C., 1 μM of the test compound was incubated with mouse liver microsomes (0.5 mg/mL) supplemented with NADPH regeneration system for 5, 10, 20, 30 and 60 minutes, and then LC-MS/MS method was used to detect the concentration of the test compound in the generated sample. The half-life (T1/2) and inherent clearance rate (CLint(mic)) of the compound in mouse liver microsome solution were obtained by calculating at the corresponding time points and the remaining percentage of the compound.

Data set [5] concerns the target T2, PDE10A1 (Homo sapiens, UniProt Q9Y233).
T2 construct: purchased Biomol (BPS Bioscience) BPS-60385
Nature of the data set: PDE10A1 inhibition by fluorescence polarization. In kind it is biochemical. To be noted: PDE10A1 kit, read-out: IC50 (μM), inhibitory effect on PDE10A1. The source says:
8. Activity of the Compounds on PDE10A1
In this experiment, the effect of the compounds on the inhibition of PDE10A1 activity was detected by the method of fluorescence polarization. PDE10A1 kit was used for detection (Biomol, BPS-60385). […]
(Fluorescence polarisation rises when a labelled molecule tumbles more slowly, as on binding a larger partner.)

T2 sequence (Q9Y233 1-779 isoform Q9Y233-1): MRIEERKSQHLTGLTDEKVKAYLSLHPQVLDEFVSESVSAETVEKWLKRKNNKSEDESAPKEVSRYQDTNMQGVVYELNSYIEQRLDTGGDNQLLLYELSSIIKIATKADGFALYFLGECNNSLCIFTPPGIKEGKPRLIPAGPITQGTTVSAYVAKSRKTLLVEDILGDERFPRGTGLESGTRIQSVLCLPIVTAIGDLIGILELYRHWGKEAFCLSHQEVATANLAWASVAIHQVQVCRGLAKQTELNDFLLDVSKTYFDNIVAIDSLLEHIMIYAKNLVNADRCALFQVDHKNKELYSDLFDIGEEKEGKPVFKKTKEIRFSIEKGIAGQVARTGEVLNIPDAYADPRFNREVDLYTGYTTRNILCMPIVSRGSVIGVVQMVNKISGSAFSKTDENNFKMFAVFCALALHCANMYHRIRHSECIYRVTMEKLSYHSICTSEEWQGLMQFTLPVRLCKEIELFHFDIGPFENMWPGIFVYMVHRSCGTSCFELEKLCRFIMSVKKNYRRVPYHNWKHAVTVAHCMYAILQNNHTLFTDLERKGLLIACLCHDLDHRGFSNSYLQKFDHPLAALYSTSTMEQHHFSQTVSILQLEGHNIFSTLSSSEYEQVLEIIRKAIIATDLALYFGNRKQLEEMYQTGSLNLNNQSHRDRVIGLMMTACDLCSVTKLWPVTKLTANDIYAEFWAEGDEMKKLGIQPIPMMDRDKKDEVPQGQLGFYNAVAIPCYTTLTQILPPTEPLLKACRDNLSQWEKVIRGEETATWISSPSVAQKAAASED

Turning to `N#Cc1ccc(COc2cccc(C3CCN(Cc4nc5sc(C(=O)O)cc5n4C[C@@H]4CCO4)CC3)n2)c(F)c1` [Compound 1, (S)-2-((4-(6-((4-cyano-2-fluorobenzyl)oxy)pyridin-2-yl)piperidin-1-yl)methyl)-1-(oxetan-2-ylmethyl)-1H-thieno[2,3-d]imidazole-5-carboxylic acid], the microsomal CLint at 1 μM in data set [1] (microsomes) amounted to 0.23 µL/min/mg. Further, the half-life at 1 μM in data set [1] (canine liver microsomes 0.5 mg/mL, 1 μM compound, NADPH, 37° C.) worked out at 4.25 days. The half-inhibitory concentration (IC50) in data set [2] was determined as 33.6 µM.
In the case of `N#Cc1ccc(COc2cccc(C3=CCN(Cc4nc5sc(C(=O)O)cc5n4C[C@@H]4CCO4)CC3)n2)c(F)c1` [Compound 2, (S)-2-((6-((4-cyano-2-fluorobenzyl)oxy)-3′,6′-dihydro-[2,4′-bipyridin]-1′(2′H)-yl)methyl)-1-(oxetan-2-ylmethyl)-1H-thieno[2,3-d]imidazole-5-carboxylic acid], the half-life at 1 μM in data set [3] (monkey liver microsomes 0.5 mg/mL, 1 μM compound, NADPH, 37° C.) is 842 min; in data set [4] it was 1420 min. The microsomal CLint at 1 μM in data set [3] (monkey, microsomes) is 1.6 µL/min/mg; in data set [4] (read-out: CLint(mic)) it was 0.977 µL/min/mg. The IC50 in data set [5] was over 500 µM; in data set [2], 52.2 µM.
